Results reported in US20210267978A1, “NANOPARTICLE FORMULATIONS OF IKE AND METHODS OF USE THEREOF” (The Trustees of Columbia University in the City of New York, priority 2018, published 2021).

How the values were obtained:
[1] = test system: SUDHL6 subcutaneous xenografts; experiment: IKE efficacy study, tumor volume; format: in vivo, NCG mice; details: starting from day 9 of treatment
Method: IKE was dissolved in 5% DMSO/95% HBSS at pH 4 to create a 4 mg/mL solution. 5% DMSO/95% HBSS at pH 4 was used as vehicle 1. IKE PEG-PLGA nanoparticles and unfunctionalized PEG-PLGA nanoparticles (without IKE loading) (vehicle 2) prepared with a NanoAssemblr were dialyzed with deionized water overnight, the water was changed at least twice. Dialyzed IKE-PEG-PLGA nanoparticles and unfunctional PEG-PLGA nanoparticles were concentrated by Amicon Ultra-15 Centrifugal Filter Units to create a solution with 80 mg/mL PEG-PLGA nanoparticles. All above solutions were sterilized by filter through a 0.2 μm syringe filter.
NCG mice, 6-weeks old, were injected with 10 million SUDHLO-6 cells subcutaneously. […] Tumor volume was measured daily with electronic caliper and calculated using the formula: 0.5×length×width^2. […] Tumor volume change was analyzed in Prism using one-way ANOVA. Tumor tissues were analyzed as described in the RT-qPCR, immunofluorescence, TBARS, and lipidomics sections below.
We investigated the efficacy of IKE in vivo in male NCG mice bearing SUDHL6 subcutaneous xenografts. […] During the experimental period, mouse weight and tumor volume were measured daily to determine IKE's antitumor effect and possible toxicity. Tumor growth was calculated as the fold change relative to original tumor volume on day 0 before the first dose (FIG. 4C). […]

[2] = test system: SUDHL6 xenograft tumor tissue; experiment: qPCR in mouse tumor tissue after one IKE dose; format: in vivo, NCG mice; details: single dose IKE 50 mg/kg, starting at 3 h
Method: NCG mice 6-weeks of age were injected with 10 million SUDHL-6 cells subcutaneously. Visible tumors appeared after 2 weeks. Tumor size was measured by electronic caliper every 2 days and calculated using the formula: 0.5×length×width^2. After another 2 weeks, mice were randomly separated into group of 3 mice per cage with roughly tumor size (1200 mm^3). Mice were dosed at 50 mg/kg IKE, 22 mg/kg IKE, 22 mg/kg IKE PEG-PLGA nanoparticles (equal to 600 mg/kg PEG-PLGA) using IP at one time and samples were collected at 0, 1, 2, 3, 4, 6, and 24 h with three mice per time point. Mice were dosed with Vehicle 1 and Vehicle 2 (600 mg/kg PEG-PLGA) by IP and samples were collected at 24 h. […] Plasma samples were collected and analyzed as described above. […] After drying, the samples were resuspended in 100 μL of methanol and analyzed on the LC-MS with each sample analyzed twice. […] The concentration of IKE in the sample was determined by comparison against a standard curve of IKE in the range of 25 to 2,500 ng/mL. […] Pharmacokinetics parameters of IKE were assessed using Prism fitted with Lognormal of one phase exponential decay. […]
To perform qPCR analysis in mouse tumor tissue, ˜20 mg of tumor tissue was prepared and kept on dry ice. […] RNA was reverse transcribed to cDNA then used in quantitative PCR experiment following the same steps used in cell qPCR experiment.

CC(C)Oc1ccc(C(=O)Cn2ccnc2)cc1-n1c(CN2CCN(C(=O)COc3ccc(Cl)cc3)CC2)nc2ccccc2c1=O [IKE, Imidazole ketone erastin]
tumor growth (tumor volume fold change vs day 0) ([1]; 23 mg/kg i.p. once daily): significant decrease in tumor growth | tumor growth (tumor volume fold change vs day 0) ([1]; 40 mg/kg i.p. once daily): significant decrease in tumor growth | CHAC1 mRNA upregulation in tumor [2]: 2 fold
